Results taken from publication PMC10222456, “Application of Physiologically Based Pharmacokinetic Modeling to Predict Drug–Drug Interactions between Elexacaftor/Tezacaftor/Ivacaftor and Tacrolimus in Lung Transplant Recipients” (Pharmaceutics, 2023).
Several values for one entry are separate records, joined by “and”; a condition that tells them apart may be missing. Identical values can stand only once. Like-named read-outs stand apart in the source and are kept apart here.

Experiments:
[1] = cited from earlier work
[2] = cited from earlier work; remark: listed apart in the source
CYP3A5 = test system: CYP3A5; set-up: method as in Dai et al. [23]; conditions: ref Dai et al. [23], cited from earlier work
CYP3A [3] = conditions: cited from earlier work; for AUC ratio: co-administration with posaconazole 400 mg twice daily
CYP3A [4] = experiment: PBPK simulation of clinical DDI studies (model verification); set-up: species or system human
Description: For verification simulations, the dose and schedule of drugs were matched to the design of the corresponding clinical DDI study performed in healthy volunteers.
The input parameters of these CYP3A substrates are available in the compound library of Simcyp version 21: SV-Ethinylestradiol and Sim-Midazolam. […] For the ivacaftor–ethinylestradiol situation, ivacaftor 150 mg was administered orally twice daily for 28 days, while ethinylestradiol oral 0.035 mg was administered once daily for 21 days.
The PBPK models for posaconazole and voriconazole as CYP3A inhibitors were built according to the publications by Hong and Li et al., respectively. For the posaconazole–tacrolimus DDI study, posaconazole was administered orally at a dose of 400 mg twice daily for 7 days, and a single oral dose of tacrolimus 0.05 mg/kg was administered on day 7. For the voriconazole–tacrolimus DDI, voriconazole was administered orally at a dose of 400 mg twice daily for the first day, followed by 200 mg twice daily for the next 6 days, and a single oral dose of tacrolimus 0.1 mg/kg was administered on day 7.
To quantify the DDIs, the geometric mean ratios of AUC or Cmax in the presence or absence of CYP3A modulators were determined. The assessment of the DDI prediction success was based on whether predictions fell within a twofold range of the observed data.

[5] = cited from earlier work; remark: listed apart in the source
[6] = cited from earlier work; remark: listed apart in the source
[7] = set-up: method as in Emoto et al. [25]; conditions: ref Emoto et al. [25], cited from earlier work
[8] = PBPK simulation of plasma or blood pharmacokinetics (Simcyp); conditions: single dose oral or intravenous, Cmax and AUC
Description: The PBPK models were implemented within the Simcyp Simulator (version 21; Certara, Sheffield, UK). To mimic the CF population, the distribution of ages and proportion of females were corrected to reflect the demographics of the CF population in the default healthy population library file (Sim-Healthy volunteers) provided in Simcyp® [18]. […] Further, the proportion of females was adjusted from 0.32 in the healthy population to 0.48 in CF. For the trial design, we used a population size of 100 (10 trials with 10 subjects in each trial).
Ivacaftor was orally administered under fed conditions to mimic the clinical setting, where a fat-containing food is required for optimal absorption. The simulated data were qualified using the plasma PK data observed in an adult CF population [11].
The whole-blood PK profiles of tacrolimus following single-dose administration (0.05 mg/kg oral or 0.01 mg/kg iv infusion for 4 h) were simulated to verify the performance of the tacrolimus model. Tacrolimus was administered under fasted conditions to mimic the clinical study. The simulated data were qualified using the blood PK data observed in a healthy adult population [24].
The prediction accuracies for the area under the curve (AUC) and maximum plasma concentration (Cmax) values were calculated as a ratio of mean observed over mean predicted values. […]

Caco-2 cell = test system: Caco-2 cell; set-up: method as in Gertz et al. [22]; conditions: ref Gertz et al. [22]; cited from earlier work
[9] = Clinical case series: tacrolimus trough levels before and after starting ETI in CF lung transplant recipients; type: in vivo, human
Description: This was an IRB-approved, retrospective, single-center cohort study that reviewed all CF lung transplant recipients prescribed ETI post lung transplantation. Patients were included if they were 18 years of age or older with CF, with at least one F508del mutation/minimal function genotype or a mutation in the CFTR gene that is responsive to ETI based on in vitro data. To evaluate the impact of ETI on tacrolimus exposure, tacrolimus trough levels were recorded before and up to one month after starting ETI. Patients had to be clinically stable, with no significant changes in health status, or initiating new medications known to modulate CYP3A4 and/or P-gp one month before or after starting ETI. Patients lost to follow-up or with missing tacrolimus trough levels were excluded.
Collected data included age, sex, weight, baseline lung function, body mass index, CFTR genotype, additional comorbidities, transplant and ETI start dates, ETI and tacrolimus dosing regimens, concurrent CYP3A4 modulators, and tacrolimus blood levels.
Baseline lung function was defined as the highest forced expiratory volume in one second (FEV1) during the year prior to initiating ETI therapy, obtained from routine pulmonary function tests. Percent predicted FEV1 (ppFEV1) was then extrapolated using the Global Lung Function Initiative 2012 prediction equation [35]. Tacrolimus troughs were measured through routine clinical laboratory blood draws and analyzed by validated immunoturbidometric protocols. To assess the effects of ETI, tacrolimus doses and concentrations within one month before and after ETI start were recorded. The steady state for tacrolimus and ETI were estimated to be attained within four to five half-lives after starting a regimen. Tacrolimus troughs were recorded at least 2–3 days after a dose change and 5–6.5 days post ETI initiation, based on elexacaftor’s longest half-life of the three CFTR modulators. Furthermore, to explore potential variability in the adherence to therapy and the timing of blood draws, tacrolimus trough levels within one month post ETI were averaged. For two patients with a changed tacrolimus dose immediately prior to ETI initiation and without a corresponding trough level, we captured the next most recent dose and trough within a three-month period.
All statistical analyses were performed using GraphPad version 8.0.2, with a two-sided significance value of 0.05.

[10] = cited from earlier work; remark: listed apart in the source
CYP3A4 [11] = target: CYP3A4 (Homo sapiens, UniProt P08684); set-up: method as in Dai et al. [23]; conditions: ref Dai et al. [23], cited from earlier work
Chain of CYP3A4 (Homo sapiens, UniProt P08684) (P08684 whole entry): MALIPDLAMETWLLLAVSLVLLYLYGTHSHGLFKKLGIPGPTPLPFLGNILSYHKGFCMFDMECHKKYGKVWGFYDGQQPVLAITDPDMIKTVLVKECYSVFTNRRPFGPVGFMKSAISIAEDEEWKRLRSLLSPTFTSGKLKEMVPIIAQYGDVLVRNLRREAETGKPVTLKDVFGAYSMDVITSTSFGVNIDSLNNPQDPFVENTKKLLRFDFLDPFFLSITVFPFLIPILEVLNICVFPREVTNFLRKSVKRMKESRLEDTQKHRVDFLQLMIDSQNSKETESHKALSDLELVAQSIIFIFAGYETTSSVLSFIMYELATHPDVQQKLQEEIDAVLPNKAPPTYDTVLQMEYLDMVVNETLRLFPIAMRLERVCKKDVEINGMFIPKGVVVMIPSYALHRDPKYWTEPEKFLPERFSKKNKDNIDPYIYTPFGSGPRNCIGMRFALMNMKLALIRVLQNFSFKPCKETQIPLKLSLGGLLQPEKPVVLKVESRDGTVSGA

CYP3A [12] = test system: CYP3A; set-up: method as in earlier work; conditions: cited from earlier work
CYP3A4 [13] = conditions: set to capture observed DDIs with ketoconazole or rifampin; cited from earlier work
[14] = tacrolimus 0.05 mg/kg single dose oral, blood, healthy adults
[15] = tacrolimus 0.1 mg/kg single dose iv infusion (4 h), blood, healthy adults
[16] = individual patients 1–13, dose normalized
[17] = ivacaftor 150 mg q12h oral, plasma, adult CF population
[18] = victim drug +/− ivacaftor 150 mg oral twice daily, healthy volunteers

SMILES: C=CC[C@@H]1/C=C(\C)C[C@H](C)C[C@H](OC)[C@H]2O[C@@](O)(C(=O)C(=O)N3CCCC[C@H]3C(=O)O[C@H](/C(C)=C/[C@@H]3CC[C@@H](O)[C@H](OC)C3)[C@H](C)[C@@H](O)CC1=O)[C@H](C)C[C@@H]2OC [tacrolimus]
- Observed AUC (0–108 h) (mean) [1, 14]: 307 ng·h/mL
- Observed Cmax (mean) [1, 14]: 37.8 ng/mL
- Observed AUC (0–264 h) (mean) [1, 15]: 378 ng·h/mL
- Observed Cmax (mean) [1, 15]: 21.4 ng/mL
- Compound type ([2]; ref Gertz et al. [21]): Neutral
- Log Po:w ([2]; ref Gertz et al. [21]): 3.3
- CYP3A5 Vmax (CYP3A5; 12-hydroxylation): 1.4 pmol/min/pmol CYP
- Km (CYP3A5; 12-hydroxylation): 0.35 µM
- CYP3A5 Vmax (CYP3A5; 13-O-desmethylation): 17 pmol/min/pmol CYP
- Km (CYP3A5; 13-O-desmethylation): 0.21 µM
- AUC ratio (CYP3A [3]): 4.58
- AUC Ratio, Observed GMR (90% CI) (CYP3A [3]; tacrolimus +/− posaconazole): 4.5 (4.0, 5.2)
- Cmax Ratio, Observed GMR (90% CI) (CYP3A [3]; tacrolimus +/− posaconazole): 2.0 (2.0, 2.4)
- AUC Ratio, Observed GMR (90% CI) (CYP3A [3]; tacrolimus +/− voriconazole): 3.0 (2.7, 3.8)
- Cmax Ratio, Observed GMR (90% CI) (CYP3A [3]; tacrolimus +/− voriconazole): 2.0 (1.9, 2.5)
- increase of tacrolimus concentration (CYP3A [3]; with clarithromycin, despite a 64% reduction in the tacrolimus dose): fourfold
- AUC Ratio, Ratio (Simulated/Observed) (CYP3A [4]; tacrolimus +/− posaconazole): 0.98
- Cmax Ratio, Ratio (Simulated/Observed) (CYP3A [4]; tacrolimus +/− posaconazole): 1.20
- AUC Ratio, Ratio (Simulated/Observed) (CYP3A [4]; tacrolimus +/− voriconazole): 1.07
- Cmax Ratio, Ratio (Simulated/Observed) (CYP3A [4]; tacrolimus +/− voriconazole): 1.00
- predicted AUC and Cmax ratio relative to the observed values (CYP3A [4]; tacrolimus model as victim, DDIs with posaconazole or voriconazole): 0.98 to 1.20
- dose excreted unchanged in urine [5]: less than 1%
- unchanged tacrolimus as share of total radioactivity excreted in feces ([5]; in vivo): less than 1%
- B/P (blood-to-plasma ratio) ([6]; ref Gertz et al. [21]): 35
- ka (absorption rate constant) ([7]; first-order absorption model): 3.68 h⁻¹
- kin ([7]; minimal PBPK model): 0.68 h⁻¹
- kout ([7]; minimal PBPK model): 0.10 h⁻¹
- Lag time [7]: 0.43 h
- Vsac (single adjusted compartment volume) [7]: 10.8 L/kg
- fa (fraction available from dosage form) [7]: 1.0
- ratio of the predicted to observed PK parameters [8]: 0.8–1.3
- Caco-2 permeability (Caco-2 cell): 13.1 10^−6 cm/s
- TAC DN Trough Level, Post-ETI, Median ([9]; N = 13 cohort): 96.12 ng/mL per mg/kg/day
- TAC DN Trough Level, Pre-ETI, Median ([9]; N = 13 cohort): 73.41 ng/mL per mg/kg/day
- TAC Trough Concentration, Post-ETI, Median ([9]; N = 13 cohort): 9.05 ng/mL
- TAC Trough Concentration, Pre-ETI, Median ([9]; N = 13 cohort): 7.50 ng/mL
- Percent Difference DN Trough, Median (increase after starting ETI) ([9]; N = 13 cohort, p = 0.0479): 32%
- TAC Trough Concentration, Post-ETI ([9]; individual patients 1–13, averaged within one month post ETI): 9.50 ng/mL and 3.40 ng/mL and 8.90 ng/mL and 6.10 ng/mL and 5.58 ng/mL and 6.70 ng/mL and 9.05 ng/mL and 15.70 ng/mL and 14.10 ng/mL and 9.75 ng/mL and 9.73 ng/mL and 8.45 ng/mL and 11.30 ng/mL
- Percent Difference DN Trough ([9]; individual patients 1–13, post- vs pre-ETI): 62.10% and −57.76% and 30.93% and −6.95% and −47.69% and 35.60% and 53.90% and 125.51% and 74.90% and 65.49% and 32.22% and −21.64% and 13.23%
- TAC Trough Concentration, Pre-ETI ([9]; individual patients 1–13, within one month before ETI start): 5.60 ng/mL and 7.30 ng/mL and 7.10 ng/mL and 6.60 ng/mL and 11.40 ng/mL and 6.90 ng/mL and 8.40 ng/mL and 7.70 ng/mL and 7.50 ng/mL and 10.40 ng/mL
- TAC DN Trough Level, Post-ETI [9, 16]: 245.10 ng/mL per mg/kg/day and 19.30 ng/mL per mg/kg/day and 96.12 ng/mL per mg/kg/day and 101.40 ng/mL per mg/kg/day and 42.88 ng/mL per mg/kg/day and 62.88 ng/mL per mg/kg/day and 68.78 ng/mL per mg/kg/day and 162.86 ng/mL per mg/kg/day and 82.64 ng/mL per mg/kg/day and 451.10 ng/mL per mg/kg/day and 193.04 ng/mL per mg/kg/day and 54.29 ng/mL per mg/kg/day and 454.83 ng/mL per mg/kg/day
- TAC DN Trough Level, Pre-ETI [9, 16]: 151.20 ng/mL per mg/kg/day and 45.68 ng/mL per mg/kg/day and 73.41 ng/mL per mg/kg/day and 108.97 ng/mL per mg/kg/day and 81.98 ng/mL per mg/kg/day and 46.37 ng/mL per mg/kg/day and 44.69 ng/mL per mg/kg/day and 72.22 ng/mL per mg/kg/day and 47.25 ng/mL per mg/kg/day and 272.58 ng/mL per mg/kg/day and 146.00 ng/mL per mg/kg/day and 69.29 ng/mL per mg/kg/day and 401.70 ng/mL per mg/kg/day
- increase in tacrolimus DN trough levels ([9]; patients on a full dose of ETI): 32%
- increase in tacrolimus DN trough levels ([9]; subgroup of 4 patients on CYP3A4 modulators and reduced ETI dose): 22%
- oral bioavailability [10]: < 20%
- bioavailability ([10]; significantly affected by the presence of food): 5–93%
- CYP3A4 Vmax (CYP3A4 [11]; 12-hydroxylation): 0.6 pmol/min/pmol CYP
- Km (CYP3A4 [11]; 12-hydroxylation): 0.29 µM
- CYP3A4 Vmax (CYP3A4 [11]; 13-O-desmethylation): 8 pmol/min/pmol CYP
- Km (CYP3A4 [11]; 13-O-desmethylation): 0.21 µM

SMILES: Cc1nn(C)cc1S(=O)(=O)NC(=O)c1ccc(-n2ccc(OCC(C)(C)C(F)(F)F)n2)nc1N1C[C@@H](C)CC1(C)C [elexacaftor]
- effect on the activity of CYP3A (CYP3A [12]): no significant effect

SMILES: CC(C)(C)c1cc(C(C)(C)C)c(NC(=O)c2c[nH]c3ccccc3c2=O)cc1O [ivacaftor]
- Observed AUC (0–12 h) (mean) [1, 17]: 12,100 ng∙h/mL
- Observed Cmax (mean) [1, 17]: 1270 ng/mL
- logP ([2]; ivacaftor model input): 5.68
- fraction metabolized by CYP3A4 (fmCYP3A4) (CYP3A4 [13]): 98%
- fraction of unbound drug in plasma (fu) ([6]; ivacaftor model input): 0.001
- Tmax ([10]; human, in vivo): 2 to 6 h
- half-life ([10]; human, in vivo): 15 h

SMILES: CC(C)(CO)c1cc2cc(NC(=O)C3(c4ccc5c(c4)OC(F)(F)O5)CC3)c(F)cc2n1C[C@@H](O)CO [tezacaftor]
- effect on the activity of CYP3A (CYP3A [12]): no significant effect

SMILES: C#C[C@]1(O)CC[C@H]2[C@@H]3CCc4cc(O)ccc4[C@H]3CC[C@@]21C [ethinylestradiol]
- AUC Ratio, Observed GMR (90% CI) (CYP3A [3]; [18]): 1.07 (1.00, 1.14)
- Cmax Ratio, Observed GMR (90% CI) (CYP3A [3]; [18]): 1.22 (1.10, 1.36)
- AUC Ratio, Ratio (Simulated/Observed) (CYP3A [4]; victim drug +/− ivacaftor): 1.07
- Cmax Ratio, Ratio (Simulated/Observed) (CYP3A [4]; victim drug +/− ivacaftor): 0.91

SMILES: Cc1ncc2n1-c1ccc(Cl)cc1C(c1ccccc1F)=NC2 [midazolam]
- AUC ratio (CYP3A [3]): 4.97
- AUC Ratio, Observed GMR (90% CI) (CYP3A [3]; [18]): 1.54 (1.39, 1.69)
- Cmax Ratio, Observed GMR (90% CI) (CYP3A [3]; [18]): 1.38 (1.26, 1.52)
- AUC Ratio, Ratio (Simulated/Observed) (CYP3A [4]; victim drug +/− ivacaftor): 1.09
- Cmax Ratio, Ratio (Simulated/Observed) (CYP3A [4]; victim drug +/− ivacaftor): 1.09
- oral bioavailability [10]: 31–72%
